Experimental data taken from patent US20240335429A1, “MOLECULAR GLUE AND SALL4 DEGRADER” (National University of Singapore, priority 2021, published 2024).

Tests used:
Format in all cases: cell-based
[1] = biological target: T1, SALL4B-Nluc in H1299 cells (Homo sapiens, UniProt Q96SW2+Q9UJQ4); assay: Dual-luciferase SALL4B reporter cellular assay (main screen), Nluc/Fluc ratio
T1 construct: expressed in transfected cells
Source text: SALL4A or SALL4B was cloned into the dual-luciferase plasmid (pLL3.7-EF1a-IRES-Gateway-nluc-2xHA-IRES2-fluc-hCL1-P2A-Puro from Prof. William G. Kaelin group) to create a stable cell line (H1299, SALL4 negative) that ectopically express the SALL4A or B-NanoLuc fusion protein. SALL4A or B fused to nanoluciferase (Nluc) was expressed in a multicistronic mRNA with control firefly luciferase (Fluc). The measurement of Nluc/Fluc ratio enabled the determination of SALL4 fusion protein degradation relative to the internal Fluc control, independent of effects on transcription (FIG. 1A-B).
The assay was performed as described in Example 1 except in a 1,536-well plate which allows HTS of thermal shift hits from the primary screen, searching for SALL4 small molecule binders that can degrade the oncogenic SALL4B isoform. H1299 cells that stably express SALL4A/B_Nluc_Fluc were seeded in a 1,536-well clear bottom white plate (Corning) at 2,000 cells per well in RPMI medium (6 μL) and grown overnight (16 h) at 37° C., 5% CO2. Cells were treated with 8 μM of compounds for 6 h. Nano-Glo® Dual-Luciferase® Reporter Assay System and Pherastar plate reader were used for measuring the luciferase signal, following the manufacturer's instruction. For data analysis, the Nanoluc luminescence is normalized to firefly luciferase reading and then compared to the DMSO control. The screen was performed in triplicates.
The inventors treated H1299 cells overexpressing SALL4B_Nluc and the HCC (SNU-398, SNU-182) and NSCLC cells (H661) with increasing concentrations of QE-18-WG07 and IMiDs, and assayed the SALL4B_Nluc, as well as the endogenous SALL4A and B levels by immunoblots described in Example 4.

[2] = biological target: T2, SALL4A (Homo sapiens, UniProt Q9UJQ4); assay: Immunoblot of endogenous SALL4A in SNU-398 HCC cells; details: SNU-398 cells, 24 h, immunoblot quantification
T2 construct: endogenous in cells; host or cells: SNU-398 HCC cells
T2 sequence (Q9UJQ4 1-1053): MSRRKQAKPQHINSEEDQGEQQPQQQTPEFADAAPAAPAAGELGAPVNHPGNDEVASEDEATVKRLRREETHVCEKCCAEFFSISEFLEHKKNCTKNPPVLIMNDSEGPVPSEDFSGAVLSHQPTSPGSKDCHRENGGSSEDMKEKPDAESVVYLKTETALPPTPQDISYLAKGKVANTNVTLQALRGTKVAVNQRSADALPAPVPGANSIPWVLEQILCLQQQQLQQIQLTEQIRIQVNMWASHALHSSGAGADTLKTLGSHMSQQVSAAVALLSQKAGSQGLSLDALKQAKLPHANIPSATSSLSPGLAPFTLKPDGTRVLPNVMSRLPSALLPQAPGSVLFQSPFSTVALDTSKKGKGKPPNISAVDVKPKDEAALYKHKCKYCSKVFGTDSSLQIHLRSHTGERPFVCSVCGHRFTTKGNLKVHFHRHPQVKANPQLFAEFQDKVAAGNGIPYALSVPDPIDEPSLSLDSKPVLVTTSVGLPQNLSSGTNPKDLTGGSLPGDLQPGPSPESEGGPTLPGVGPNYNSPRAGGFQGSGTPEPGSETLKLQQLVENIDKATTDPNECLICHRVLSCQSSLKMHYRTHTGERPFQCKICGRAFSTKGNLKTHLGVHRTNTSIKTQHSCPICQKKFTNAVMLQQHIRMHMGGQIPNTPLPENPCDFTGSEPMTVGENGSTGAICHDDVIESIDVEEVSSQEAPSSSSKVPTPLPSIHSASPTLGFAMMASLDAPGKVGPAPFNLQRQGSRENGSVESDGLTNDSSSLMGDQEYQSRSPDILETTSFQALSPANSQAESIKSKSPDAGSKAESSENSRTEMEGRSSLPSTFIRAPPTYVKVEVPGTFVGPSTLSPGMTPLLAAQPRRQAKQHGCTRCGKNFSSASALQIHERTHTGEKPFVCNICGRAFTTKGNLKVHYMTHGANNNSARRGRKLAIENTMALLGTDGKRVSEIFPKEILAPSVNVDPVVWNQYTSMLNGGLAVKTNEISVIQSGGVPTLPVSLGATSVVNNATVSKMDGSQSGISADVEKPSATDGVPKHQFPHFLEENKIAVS
Protocol: (§1) RIPA buffer containing freshly added protease inhibitors (2 mM PMSF) and protease inhibitor cocktail was used for cell lysis. The lysed cells were incubated for 10 min on ice and subsequently centrifuged at 4° C. for 10 min at 14,000 rpm. The protein concentrations of cell lysates were assessed using Bradford Assay as per manufacturer's instructions. The samples were denatured using 4× Sample buffer at 95° C. for 5 min. The samples were size resolved using polyacrylamide gel (8%) and Mini-PROTEAN Tetra Cell module. The size-resolved proteins were transferred onto PVDF via electroblotting using Mini Trans-Blot® module. The membrane was blocked using 5% BSA in TBST. The membrane was incubated with appropriate primary antibody (overnight) and secondary antibody (1 h). Immobilon Crescendo Western HRP substrate was used for signal development and images were acquired using darkroom development techniques.
A head-to-head comparison between the newly discovered SALL4 degrader QE-18-WG07 and IMiDs (Pomalidomide and Thalidomide) was performed. […]

[3] = biological target: T3, IKZF3 (Homo sapiens, UniProt Q9UKT9); assay: Immunoblot of IKZF3 in SNU-398 HCC cells; details: SNU-398 cells
T3 construct: with immunoblots in SNU-398 HCC cells; endogenous in cells; host or cells: SNU-398 HCC cells
Protocol: as §1

T1 sequence (Q9UJQ4 1-616 isoform Q9UJQ4-2): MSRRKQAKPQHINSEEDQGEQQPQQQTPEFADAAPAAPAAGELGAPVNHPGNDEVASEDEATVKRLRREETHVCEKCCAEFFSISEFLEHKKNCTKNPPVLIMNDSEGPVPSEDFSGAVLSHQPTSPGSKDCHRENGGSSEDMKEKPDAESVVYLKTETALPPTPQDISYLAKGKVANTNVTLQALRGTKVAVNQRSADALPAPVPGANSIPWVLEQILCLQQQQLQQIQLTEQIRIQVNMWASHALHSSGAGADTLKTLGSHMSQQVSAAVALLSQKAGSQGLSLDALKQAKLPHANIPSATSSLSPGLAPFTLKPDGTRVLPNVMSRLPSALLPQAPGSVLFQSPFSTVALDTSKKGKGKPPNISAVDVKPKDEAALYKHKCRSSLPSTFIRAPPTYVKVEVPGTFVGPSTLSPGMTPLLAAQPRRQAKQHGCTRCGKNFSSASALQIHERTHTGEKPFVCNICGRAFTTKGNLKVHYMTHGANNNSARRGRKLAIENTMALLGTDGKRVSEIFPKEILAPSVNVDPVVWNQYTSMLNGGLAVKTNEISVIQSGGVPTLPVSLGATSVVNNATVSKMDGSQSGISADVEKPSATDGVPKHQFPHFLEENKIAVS
T1 sequence (Q96SW2 whole entry): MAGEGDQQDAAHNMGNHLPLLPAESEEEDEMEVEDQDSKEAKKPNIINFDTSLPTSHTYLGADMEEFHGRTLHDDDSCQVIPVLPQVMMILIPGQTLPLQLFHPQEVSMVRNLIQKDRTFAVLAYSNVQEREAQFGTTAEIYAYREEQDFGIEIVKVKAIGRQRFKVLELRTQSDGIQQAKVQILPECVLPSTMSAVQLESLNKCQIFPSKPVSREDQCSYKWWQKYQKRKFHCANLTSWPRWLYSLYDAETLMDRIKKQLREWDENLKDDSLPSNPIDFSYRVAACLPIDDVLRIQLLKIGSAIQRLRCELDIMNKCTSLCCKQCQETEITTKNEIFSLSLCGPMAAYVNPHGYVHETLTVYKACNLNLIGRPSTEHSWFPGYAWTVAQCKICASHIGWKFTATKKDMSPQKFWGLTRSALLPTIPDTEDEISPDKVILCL
T1 sequence (Q16531 whole entry partner): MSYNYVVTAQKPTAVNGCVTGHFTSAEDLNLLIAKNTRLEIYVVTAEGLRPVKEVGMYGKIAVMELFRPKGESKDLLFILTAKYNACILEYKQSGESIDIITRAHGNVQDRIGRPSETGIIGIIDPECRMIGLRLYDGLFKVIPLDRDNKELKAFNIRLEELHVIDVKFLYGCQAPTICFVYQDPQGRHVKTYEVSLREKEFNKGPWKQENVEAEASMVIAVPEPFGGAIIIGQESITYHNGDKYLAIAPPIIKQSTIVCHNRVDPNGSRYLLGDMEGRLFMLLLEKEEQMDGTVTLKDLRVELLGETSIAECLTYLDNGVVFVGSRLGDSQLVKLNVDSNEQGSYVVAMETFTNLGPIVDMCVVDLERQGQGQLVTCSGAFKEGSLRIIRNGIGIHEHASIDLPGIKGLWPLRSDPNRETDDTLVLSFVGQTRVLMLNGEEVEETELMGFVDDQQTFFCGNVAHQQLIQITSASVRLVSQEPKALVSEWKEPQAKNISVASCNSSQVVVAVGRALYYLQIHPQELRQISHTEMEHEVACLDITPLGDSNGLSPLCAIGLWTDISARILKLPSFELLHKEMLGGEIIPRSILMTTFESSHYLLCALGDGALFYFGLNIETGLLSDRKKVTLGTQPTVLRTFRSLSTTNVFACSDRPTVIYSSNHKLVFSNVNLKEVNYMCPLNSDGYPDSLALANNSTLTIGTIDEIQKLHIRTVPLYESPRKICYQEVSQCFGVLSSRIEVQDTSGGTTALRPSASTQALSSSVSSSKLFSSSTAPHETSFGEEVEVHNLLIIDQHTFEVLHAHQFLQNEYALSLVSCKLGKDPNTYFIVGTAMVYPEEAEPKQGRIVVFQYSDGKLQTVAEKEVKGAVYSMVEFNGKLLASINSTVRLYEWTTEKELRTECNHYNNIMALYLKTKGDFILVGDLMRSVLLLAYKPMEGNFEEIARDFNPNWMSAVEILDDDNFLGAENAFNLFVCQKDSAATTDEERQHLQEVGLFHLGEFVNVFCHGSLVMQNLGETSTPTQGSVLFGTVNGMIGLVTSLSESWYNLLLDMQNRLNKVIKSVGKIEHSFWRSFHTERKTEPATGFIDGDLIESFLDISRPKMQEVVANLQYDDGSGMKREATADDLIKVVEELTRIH
T3 sequence (Q9UKT9 whole entry): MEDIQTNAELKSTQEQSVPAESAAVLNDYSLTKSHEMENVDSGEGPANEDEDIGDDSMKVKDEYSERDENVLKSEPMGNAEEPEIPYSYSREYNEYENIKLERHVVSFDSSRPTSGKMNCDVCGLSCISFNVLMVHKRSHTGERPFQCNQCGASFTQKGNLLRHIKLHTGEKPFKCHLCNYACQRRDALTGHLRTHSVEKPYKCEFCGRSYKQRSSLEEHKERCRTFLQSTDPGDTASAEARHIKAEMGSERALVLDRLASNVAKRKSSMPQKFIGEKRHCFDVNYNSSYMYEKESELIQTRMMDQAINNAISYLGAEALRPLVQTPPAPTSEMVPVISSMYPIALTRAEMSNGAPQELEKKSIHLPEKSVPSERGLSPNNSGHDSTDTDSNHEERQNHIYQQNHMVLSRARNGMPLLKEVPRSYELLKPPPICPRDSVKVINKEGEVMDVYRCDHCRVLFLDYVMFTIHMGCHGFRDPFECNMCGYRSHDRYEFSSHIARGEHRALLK

Which main screen readout ([1]; 8 μM, 6 h, H1299 cells overexpressing SALL4B fused with Nluc) does the source give for COc1ccccc1NC(=O)Nc1ccc([N+](=O)[O-])cc1O [QE-18-WG07] here?
Its main screen readout is −31.

And the Dmax ([1]; NCI-H1299, SALL4B dual-luciferase reporter assay, 9 hours of treatment, read-out: maximum degradation (Dmax) of SALL4B_Nluc)?
The Dmax was 75%.

What about the “reduction in the amount of SALL4B protein” value ([1]; after 6 h of incubation in H1299 cells overexpressing SALL4B fused with Nluc) of the same compound?
The value was 31%.

What about the “SALL4B_Luc Reporter Assay % SALL4B Downregulation” value ([1]; normalized to DMSO control, mean ± SD (n = 3), 8 μM, 6 h treatment, H1299 cells) of the same compound?
Its value is 29.8 ± 1.8%.

And the DC50 [2]?
Its DC50 is roughly 4.23 µM.

And the Dmax [2]?
Its Dmax is 57%.

And the “degradation of IKZF3” value [3]?
Its value is “did not degrade”.
